Key:
Gpr158 = target: T1, Gpr158 (Mus musculus, UniProt Q8C419); assay: Whole-cell current clamp in CA3 pyramidal neurons of WT and Gpr158−/− hippocampal slices; assay type: cell-based; parameters: visually identified pyramidal neurons in the CA3 area of the hippocampus; from tissue; host or cells: coronal hippocampal slices of 3-4 week old male WT and Gpr158-/- mice
T1 sequence (Q8C419 25-1200): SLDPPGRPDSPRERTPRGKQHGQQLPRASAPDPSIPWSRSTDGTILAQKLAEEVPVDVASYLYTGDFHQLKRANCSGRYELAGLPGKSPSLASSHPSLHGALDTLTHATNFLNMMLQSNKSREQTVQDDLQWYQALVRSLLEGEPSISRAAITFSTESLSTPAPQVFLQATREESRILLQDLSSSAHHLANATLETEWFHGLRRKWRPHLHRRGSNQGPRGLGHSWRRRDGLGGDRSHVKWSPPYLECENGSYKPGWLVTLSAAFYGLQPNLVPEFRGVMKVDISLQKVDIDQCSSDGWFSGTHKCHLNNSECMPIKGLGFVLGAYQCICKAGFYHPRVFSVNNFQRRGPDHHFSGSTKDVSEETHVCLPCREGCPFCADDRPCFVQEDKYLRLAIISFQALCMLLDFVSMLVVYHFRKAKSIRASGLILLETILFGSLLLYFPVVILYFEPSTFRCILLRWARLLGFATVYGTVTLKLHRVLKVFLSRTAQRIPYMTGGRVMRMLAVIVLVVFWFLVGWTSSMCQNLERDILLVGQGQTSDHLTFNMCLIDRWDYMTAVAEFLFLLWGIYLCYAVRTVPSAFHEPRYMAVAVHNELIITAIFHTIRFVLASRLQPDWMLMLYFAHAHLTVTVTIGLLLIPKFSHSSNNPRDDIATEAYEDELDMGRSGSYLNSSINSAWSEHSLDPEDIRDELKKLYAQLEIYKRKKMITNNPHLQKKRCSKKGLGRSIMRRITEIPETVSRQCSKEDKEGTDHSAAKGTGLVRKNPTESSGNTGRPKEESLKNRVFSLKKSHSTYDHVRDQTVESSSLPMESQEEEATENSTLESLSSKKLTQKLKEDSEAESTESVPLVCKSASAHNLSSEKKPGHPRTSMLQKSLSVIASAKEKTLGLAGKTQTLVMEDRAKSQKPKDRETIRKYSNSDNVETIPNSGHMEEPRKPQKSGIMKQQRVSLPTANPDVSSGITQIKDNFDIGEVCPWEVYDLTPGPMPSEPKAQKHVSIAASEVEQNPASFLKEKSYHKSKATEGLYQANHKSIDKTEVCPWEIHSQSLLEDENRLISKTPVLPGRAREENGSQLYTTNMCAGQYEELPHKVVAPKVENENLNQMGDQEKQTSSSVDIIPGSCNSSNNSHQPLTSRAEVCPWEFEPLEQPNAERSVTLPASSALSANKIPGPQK
Description: Coronal brain slices containing the hippocampus were prepared from wild type and KO mice (3-4 weeks old, male) as previously reporte. Briefly, mice were anesthetized with isoflurane and then decapitated to harvest brains, which were rapidly removed and immersed in an oxygenated cutting solution at 4° C. containing (in mM): sucrose 220, KCl 2.5, CaCl2 1, MgCl2 6, NaH2PO4 1.25, NaHCO3 26, and glucose 10, and adjusted to pH 7.3 with NaOH. Coronal slices containing the hioopcampus (300 μm thick) were cut with a vibratome, trimmed to contain just the hippocampus. After preparation, slices were stored in a holding chamber with an oxygenated (with 5% CO2 and 95% O2) artificial cerebrospinal fluid (ACSF) containing (in mM): NaCl 124, KCl3, CaCl2 2, MgCl2 2, NaH2PO4 1.23, NaHCO3 26, glucose 10, pH 7.4 with NaOH. The slices were eventually transferred to a recording chamber constantly perfused with ACSF at 33° C. at a rate of 2 ml/min after at least a 1 hour recovery in the storage chamber. […] After a stable base of APs were recorded for 10 minutes, osteocalcin was applied to the recorded cells through bath application at a concentration of 10 ng/ml for 5-10 minutes and then washed out with ACSF. […] Action potentials were detected and analyzed with AxoGraph X and plotted with Igor Pro software (WaveMetrics, Lake Oswego, Oreg.).

[1] = tested on: brainstem neurons (dorsal raphe 5-HT neurons, locus coeruleus, GABAergic interneurons); assay: Whole cell current clamp recording in brainstem slices; assay type: cell-based, mouse; conditions: whole cell current clamp
Description: Brain slice preparations and electrophysiological recordings were performed according to methods known in the art. Briefly, WT mice were anesthetized with ether and then decapitated. The brains were rapidly removed and immersed in an oxygenated bath solution at 40° C. containing (in mM): sucrose 220, KCl 2.5, CaCl2 1, MgC12 6, NaH2PO4 1.25, NaHCO3 26, and glucose 10 pH 7.3 with NaOH. Coronal slices (350 μm thick) containing dorsal raphe (DR) were cut on a vibratome and maintained in a holding chamber with artificial cerebrospinal fluid (ACSF) (bubbled with 5% CO2 and 95% O2) containing (in mM): NaCl 124, KCl 3, CaCl2 2, MgCl2 2, NaH2PO4 1.23, NaHCO3 26, glucose 10, pH 7.4 with NaOH, and were transferred to a recording chamber constantly perfused with bath solution (330 C) at 2 ml/min after at least a 1 hr recovery. Whole-cell current clamp was performed to observe action potentials in DR serotoninergic (5-HT) neurons with a Multiclamp 700A amplifier (Axon instrument, CA). Patch pipettes with a tip resistance of 4-6 MΩ were made of borosilicate glass (World Precision Instruments) with a Sutter pipette puller (P-97) and filled with a pipette solution containing (in mM): K-gluconate (or Cs-gluconate) 135, MgCl2 2, HEPES 10, EGTA 1.1, Mg-ATP 2, Na2-phosphocreatine 10, and Na2-GTP 0.3, pH 7.3 with KOH. After a giga-Ohm (GΩ) seal and whole-cell access were achieved, the series resistance (between 20 and 40 MΩ) was partially compensated by the amplifier. […] All data were sampled at 3-10 kHz and filtered at 1-3 kHz with an Apple Macintosh computer using Axograph 4.9 (Axon Instruments). Electrophysiological data were analyzed with Axograph 4.9 and plotted with Igor Pro software (WaveMetrics, Lake Oswego, Oreg.).

CA3 pyramidal neurons showing the effect on spontaneous AP frequency (Gpr158; WT): 4 of 4 cells
Substance: osteocalcin: Recombinant osteocalcin bacterially produced, cleaved from the GST subunit; completely undercarboxylated at all three sites; full-length mouse osteocalcin (YLGASVPSPDPLEPTREQCELNPACDELSDQYGLKTAYKRIYGITI)
action potential frequency in pyramidal cells of the CA3 region (Gpr158; WT hippocampi, 10 ng/ml): significantly enhanced the action potential frequency
action potential frequency in neurons of the locus coeruleus [1]: decreases it
action potential frequency of brainstem neurons [1]: activates the action potential frequency
action potential frequency of the GABAergic interneurons of the hindbrain [1]: inhibits the action potential frequency
